16 compounds from US10687531B2, “Urea and thiourea substituted bicycles derivatives as pesticides” (SYNGENTA PARTICIPATIONS AG, priority 2016, dated 2020) can be followed below.

One data set relates to Plutella xylostella. As to the kind of experiment: Example B2: Plutella xylostella (diamond back moth), artificial diet, L2 larvae. Particulars: 120 h, application rate 200 ppm, 5 days after infestation, read-out: effect in at least one of the two categories (mortality or growth inhibition). The format is in vivo. Here is the method: Example B2: Plutella xylostella (Diamond Back Moth)
24-well microtiter plates with artificial diet were treated with aqueous test solutions prepared from 10,000 ppm DMSO stock solutions by pipetting. After drying, the plates were infested with L2 larvae (10 to 15 per well). The samples were assessed for mortality and growth inhibition in comparison to untreated samples 5 days after infestation.

The test system of the next data set is Diabrotica balteata. Kind of data set: Example B3: Diabrotica balteata (corn root worm), maize sprouts, L2 larvae. The format is in vivo. Particulars: 96 h, application rate 200 ppm, 4 days after infestation, read-out: effect in at least one of the two categories (mortality or growth inhibition). As to the method:
Example B3: Diabrotica balteata (Corn Root Worm)
Maize sprouts, placed on an agar layer in 24-well microtiter plates were treated with aqueous test solutions prepared from 10,000 ppm DMSO stock solutions by spraying. After drying, the plates were infested with L2 larvae (6 to 10 per well). The samples were assessed for mortality and growth inhibition in comparison to untreated samples 4 days after infestation.

In the next data set the test system is Spodoptera littoralis. As to the kind of experiment: Example B1: Spodoptera littoralis (Egyptian cotton leaf worm), cotton leaf disc spray, L1 larvae. The format is in vivo. The note with it: foliar, 72 h, application rate 200 ppm, 3 days after infestation, read-out: control (at least one of mortality, anti-feedant effect, growth inhibition). Here is the method:
Example B1: Spodoptera littoralis (Egyptian Cotton Leaf Worm)
Cotton leaf discs were placed on agar in 24-well microtiter plates and sprayed with aqueous test solutions prepared from 10,000 ppm DMSO stock solutions. After drying, the leaf discs were infested with five L1 larvae. The samples were assessed for mortality, anti-feedant effect, and growth inhibition in comparison to untreated samples 3 days after infestation. Control of Spodoptera littoralis by a test sample is when at least one of mortality, anti-feedant effect, and growth inhibition is higher than the untreated sample.

The test system of data set [1] is Frankliniella occidentalis. As to the kind of experiment: Example B6: Frankliniella occidentalis (western flower thrips), sunflower leaf disc spray. The data set is classed as in vivo. Particulars: foliar, 168 h, application rate 200 ppm, 7 days after infestation, mixed ages. Here is the method:
Example B6: Frankliniella occidentalis (Western Flower Thrips)
Sunflower leaf discs were placed on agar in 24-well microtiter plates and sprayed with aqueous test solutions prepared from 10,000 DMSO stock solutions. After drying the leaf discs were infested with a Frankliniella population of mixed ages. The samples were assessed for mortality 7 days after infestation.

The subject of another data set is Euschistus heros. Kind of data set: Example B4: Euschistus heros, soybean leaf spray, N-2 nymphs. The note with it: 120 h, application rate 200 ppm, 5 days after infestation, read-out: effect in at least one of the two categories (mortality or growth inhibition). The data set is classed as in vivo. As to the method: Example B4: Euschistus heros
Soybean leaf on agar in 24-well microtiter plates were sprayed with aqueous test solutions prepared from 10,000 ppm DMSO stock solutions. After drying the leaf were infested with N-2 nymphs. The samples were assessed for growth inhibition in comparison to untreated samples 5 days after infestation.

In the next data set the test system is Thrips tabaci. Kind of data set: Example B5: Thrips tabaci (onion thrips), sunflower leaf disc spray. The format is in vivo. The note with it: foliar, 144 h, application rate 200 ppm, 6 days after infestation, mixed ages. As to the method: Example B5: Thrips tabaci (Onion Thrips)
Sunflower leaf discs were placed on agar in 24-well microtiter plates and sprayed with aqueous test solutions prepared from 10,000 ppm DMSO stock solutions. After drying the leaf discs were infested with a thrips population of mixed ages. The samples were assessed for mortality 6 days after infestation.

As to `CC(C)c1ccccc1NC(=O)Nc1ccc2cc(-c3ncn(-c4ccc(OC(F)(F)F)cc4)n3)ccc2n1` [Compound P1.3, 1-(2-isopropylphenyl)-3-[6-[1-[4-(trifluoromethoxy)phenyl]-1,2,4-triazol-3-yl]-2-quinolyl]urea], in the data set on Plutella xylostella, the percent control (mortality or growth inhibition) at 200 ppm is ≥ 80%. In addition, the percent effect (mortality or growth inhibition) at 200 ppm in the data set on Diabrotica balteata was ≥ 80%.

For the compound `CC(C)c1ccccc1NC(=S)Nc1ccc2cc(-c3ncn(-c4ccc(OC(F)(F)F)cc4)n3)ccc2n1` [Compound P1.4, 1-(2-isopropylphenyl)-3-[6-[1-[4-(trifluoromethoxy)phenyl]-1,2,4-triazol-3-yl]-2-quinolyl]thiourea], in the data set on Spodoptera littoralis, the control at 200 ppm was ≥ 80%. Besides, the percent control (mortality or growth inhibition) at 200 ppm in the data set on Plutella xylostella is ≥ 80%. Further, in the data set with Diabrotica balteata, the percent effect (mortality or growth inhibition) at 200 ppm is ≥ 80%.

As to `CC(C)c1ccccc1N1CS/C1=N\c1ccc2cc(-c3ncn(-c4ccc(OC(F)(F)F)cc4)n3)ccc2n1` [Compound P2.1, 3-(2-isopropylphenyl)-N-[6-[1-[4-(trifluoromethoxy)phenyl]-1,2,4-triazol-3-yl]-2-quinolyl]-1,3-thiazetidin-2-imine], in the data set on Spodoptera littoralis, the control at 200 ppm is ≥ 80%. The percent control (mortality or growth inhibition) at 200 ppm in the data set with Plutella xylostella is ≥ 80%. Moreover, the percent effect (mortality or growth inhibition) at 200 ppm in the data set with Diabrotica balteata was ≥ 80%. Further, the mortality at 200 ppm in data set [1] is ≥ 80%.

For the compound `Cc1cs/c(=N\c2ccc3cc(-c4ncn(-c5ccc(OC(F)(F)F)cc5)n4)ccc3n2)n1-c1ccccc1C(C)C` [Compound P2.2, 3-(2-isopropylphenyl)-4-methyl-N-[6-[1-[4-(trifluoromethoxy)phenyl]-1,2,4-triazol-3-yl]-2-quinolyl]thiazol-2-imine], the control at 200 ppm in the data set on Spodoptera littoralis was ≥ 80%. In addition, the percent control (mortality or growth inhibition) at 200 ppm in the data set with Plutella xylostella was ≥ 80%. Further, the percent effect (mortality or growth inhibition) at 200 ppm in the data set on Diabrotica balteata is ≥ 80%. The mortality at 200 ppm in data set [1] is ≥ 80%.

Consider `CC(C)c1ccccc1N1C(=O)CS/C1=N\c1ccc2cc(-c3ncn(-c4ccc(OC(F)(F)F)cc4)n3)ccc2n1` [Compound P2.3, (2Z)-3-(2-isopropylphenyl)-2-[[6-[1-[4-(trifluoromethoxy)phenyl]-1,2,4-triazol-3-yl]-2-quinolyl]imino]thiazolidin-4-one], for which the control at 200 ppm in the data set on Spodoptera littoralis is ≥ 80%. Besides, in the data set with Plutella xylostella, the percent control (mortality or growth inhibition) at 200 ppm was ≥ 80%. Also, the percent effect (mortality or growth inhibition) at 200 ppm with Diabrotica balteata is ≥ 80%. Besides, the mortality at 200 ppm in data set [1] was ≥ 80%.

Take `CC(C)c1ccccc1/N=C1/SCC(=O)N1c1ccc2cc(-c3ncn(-c4ccc(OC(F)(F)F)cc4)n3)ccc2n1` [Compound P2.4, (2E)-2-(2-isopropylphenyl)imino-3-[6-[1-[4-(trifluoromethoxy)phenyl]-1,2,4-triazol-3-yl]-2-quinolyl]thiazolidin-4-one]: the control at 200 ppm in the data set on Spodoptera littoralis is ≥ 80%. Moreover, in the data set on Plutella xylostella, the percent control (mortality or growth inhibition) at 200 ppm was ≥ 80%. Besides, the percent effect (mortality or growth inhibition) at 200 ppm in the data set with Diabrotica balteata and in the data set on Euschistus heros was ≥ 80% in each case. Besides, the mortality at 200 ppm (in the data set with Thrips tabaci; in data set [1]) was ≥ 80% in each case.

Compound `Cc1cccc(C)c1NC(=O)Nc1ncc2cc(-c3ncn(-c4ccc(OC(F)(F)F)cc4)n3)ccc2n1` [Compound P2.6, 1-(2,6-dimethylphenyl)-3-[6-[1-[4-(trifluoromethoxy)phenyl]-1,2,4-triazol-3-yl]quinazolin-2-yl]urea] yielded a melting point of 247 to 249 °C.

For `Cc1cccc(C)c1N1/C(=N/c2ncc3cc(-c4ncn(-c5ccc(OC(F)(F)F)cc5)n4)ccc3n2)SCC1(C)O` (stereo not shown) [Compound P2.7, (2Z)-3-(2,6-dimethylphenyl)-4-methyl-2-[6-[1-[4-(trifluoromethoxy)phenyl]-1,2,4-triazol-3-yl]quinazolin-2-yl]imino-thiazolidin-4-ol], the percent effect (mortality or growth inhibition) at 200 ppm with Diabrotica balteata and in the data set on Euschistus heros was ≥ 80% each time.

The compound `Cc1cccc(C)c1N1CS/C1=N\c1ncc2cc(-c3ncn(-c4ccc(OC(F)(F)F)cc4)n3)ccc2n1` [Compound P2.8, 3-(2,6-dimethylphenyl)-N-[6-[1-[4-(trifluoromethoxy)phenyl]-1,2,4-triazol-3-yl]quinazolin-2-yl]-1,3-thiazetidin-2-imine] gave a melting point of 227 to 229 °C.

Consider `Cc1cccc(C)c1N1C(=O)CS/C1=N\c1ncc2cc(-c3ncn(-c4ccc(OC(F)(F)F)cc4)n3)ccc2n1` [Compound P2.9, (2Z)-3-(2,6-dimethylphenyl)-2-[6-[1-[4-(trifluoromethoxy)phenyl]-1,2,4-triazol-3-yl]quinazolin-2-yl]imino-thiazolidin-4-one], for which the control at 200 ppm in the data set with Spodoptera littoralis is ≥ 80%. In the data set on Plutella xylostella, the percent control (mortality or growth inhibition) at 200 ppm was ≥ 80%. Besides, the percent effect (mortality or growth inhibition) at 200 ppm with Diabrotica balteata is ≥ 80%.

Turning to `Cc1cccc(C)c1NC(=S)Nc1cnc2cc(-c3ncn(-c4ccc(OC(F)(F)F)cc4)n3)ccc2n1` [Compound P2.11, 1-(2,6-dimethylphenyl)-3-[6-[1-[4-(trifluoromethoxy)phenyl]-1,2,4-triazol-3-yl]quinoxalin-2-yl]thiourea], the control at 200 ppm in the data set on Spodoptera littoralis is ≥ 80%. Also, in the data set on Plutella xylostella, the percent control (mortality or growth inhibition) at 200 ppm was ≥ 80%. Further, the percent effect (mortality or growth inhibition) at 200 ppm with Diabrotica balteata was ≥ 80%.

Take `Cc1cccc(C)c1N1CS/C1=N\c1cnc2cc(-c3ncn(-c4ccc(OC(F)(F)F)cc4)n3)ccc2n1` [Compound P2.12, 3-(2,6-dimethylphenyl)-N-[6-[1-[4-(trifluoromethoxy)phenyl]-1,2,4-triazol-3-yl]quinoxalin-2-yl]-1,3-thiazetidin-2-imine]: in the data set on Spodoptera littoralis, the control at 200 ppm was ≥ 80%. Besides, the mortality at 200 ppm in data set [1] was ≥ 80%.

For `Cc1cccc(C)c1NC(=S)Nc1ccc2cc(-c3ncn(-c4ccc(OC(F)(F)F)cc4)n3)ccc2c1` [Compound P2.13, 1-(2,6-dimethylphenyl)-3-[6-[1-[4-(trifluoromethoxy)phenyl]-1,2,4-triazol-3-yl]-2-naphthyl]thiourea], the control at 200 ppm with Spodoptera littoralis is ≥ 80%. In the data set on Plutella xylostella, the percent control (mortality or growth inhibition) at 200 ppm is ≥ 80%. In addition, in the data set with Diabrotica balteata, the percent effect (mortality or growth inhibition) at 200 ppm was ≥ 80%.

Regarding `Cc1cccc(C)c1N1CS/C1=N\c1nc2ccc(-c3ncn(-c4ccc(OC(F)(F)F)cc4)n3)cc2s1` [Compound P2.14, 3-(2,6-dimethylphenyl)-N-[6-[1-[4-(trifluoromethoxy)phenyl]-1,2,4-triazol-3-yl]-1,3-benzothiazol-2-yl]-1,3-thiazetidin-2-imine], the control at 200 ppm in the data set on Spodoptera littoralis was ≥ 80%. In the data set with Plutella xylostella, the percent control (mortality or growth inhibition) at 200 ppm was ≥ 80%. Moreover, in the data set with Thrips tabaci, the mortality at 200 ppm was ≥ 80%.

`Cc1cccc(C)c1/N=C1/SCN1c1nc2ccc(-c3ncn(-c4ccc(OC(F)(F)F)cc4)n3)cc2s1` [Compound P2.15, N-(2,6-dimethylphenyl)-3-[6-[1-[4-(trifluoromethoxy)phenyl]-1,2,4-triazol-3-yl]-1,3-benzothiazol-2-yl]-1,3-thiazetidin-2-imine]: the melting point is > 250 °C.

Consider `Cc1cccc(C)c1NC(=S)Nc1nc2ccc(-c3ncn(-c4ccc(OC(F)(F)F)cc4)n3)cc2s1` [Compound P2.17, 1-(2,6-dimethylphenyl)-3-[6-[1-[4-(trifluoromethoxy)phenyl]-1,2,4-triazol-3-yl]-1,3-benzothiazol-2-yl]thiourea], for which the control at 200 ppm in the data set on Spodoptera littoralis is ≥ 80%. Moreover, in the data set on Plutella xylostella, the percent control (mortality or growth inhibition) at 200 ppm is ≥ 80%. Further, the percent effect (mortality or growth inhibition) at 200 ppm in the data set with Diabrotica balteata and with Euschistus heros was ≥ 80% throughout.

As a reminder, the mortality is the percentage killed. As a reminder, the melting point is the temperature of the solid-liquid transition.
